# Read-outs that look alike come from different tables or passages of the source. Positions of bridges follow the written chain, without caps; N, C: chain ends. Non-standard residues stand in square brackets, D forms with d. Residues, ends and D or L forms follow the SMILES beside them.
# Experimental: In order to stabilize the compound toward such decomposition it was treated in aqueous solution with 10-40 mole % of N-ethylmaleimide, a reagent which will react with free sulfhydryl groups that could catalyze disulfide interchange. The excess N-ethyl maleimide was separated by passage through a column of Sephadex° G-25 gel (superfine) eluted with 50% acetic acid.
smiles,measurement,setting,value
C[C@@H](O)[C@@H]1NC(=O)[C@H](CCCCN)NC(=O)[C@@H](Cc2c[nH]c3ccccc23)NC(=O)[C@H](Cc2ccccc2)NC(=O)[C@@H]2CSSC[C@H](NC1=O)C(=O)N2 [Example 6] (cyclo(CCF[dW]KT); disulfide 1-2),stability with respect to polymerization,after treatment in aqueous solution with 10-40 mole % of N-ethylmaleimide and reisolation,completely stable
same,stability with respect to polymerization,"sample as isolated, in certain solvents or on extended storage",unstable with respect to polymerization
